System: skin
Assay: Test Example 1: transepidermal water loss (TEWL) of skin pretreated with sodium lauryl sulfate, Tewameter
Assay type: in vivo
Conditions: conclusion drawn from Table 3
Procedure: Vesicle dispersion liquid 1, Vesicle dispersion liquid 2, Comparative Example 4, Comparative Example 5, and Comparative Example 6 were each used as a sample. The skin was previously applied and blocked with 1% sodium lauryl sulfate aqueous solution for 24 hours to enhance transepidermal water loss (TEWL), and was applied and blocked with the sample for 6 hours, and 30 minutes after removing a bandage, TEWL was determined using Tewameter (manufactured by Integral Corporation). It should be noted that water was applied as a control. […] This is inferably because the dermis-reaching property of Palmaria extract 1, which is an active ingredient, has been enhanced owing to the vesicle.

CCCCCCCCCCCC(=O)N[C@@H](CCC(=O)NCCCC[C@H](NC(=O)CC[C@H](NC(=O)CCCCCCCCCCC)C(=O)O)C(=O)O)C(=O)O [Pellicer L-30, α,ε-bis (γ-N-lauroylglutamyl)lysine]
TEWL-suppressing effect (in words): had a function of suppressing TEWL

Reference: patent publication US8865208B2, “Vesicle useful for external preparation for skin, and external preparation for skin comprising the vesicle” (Pola Chemical Industries Inc., priority 2007, dated 2014)
